Laboratory results: PMC9046974, “Construction of a Microfluidic Platform With Core-Shell CdSSe@ZnS Quantum Dot-Encoded Superparamagnetic Iron Oxide Microspheres for Screening and Locating Matrix Metalloproteinase-2 Inhibitors From Fruits of Rosa roxburghii” (Frontiers in Nutrition, 2022)

Target: T1, matrix metalloproteinase-2 (Homo sapiens, UniProt P08253)
T1 construct: purchased not specified for the assay (Sigma Co. recombinant enzyme or a component of the Shanghai Easy Biotech Co. ELISA kit)
T1 sequence (P08253 110-660): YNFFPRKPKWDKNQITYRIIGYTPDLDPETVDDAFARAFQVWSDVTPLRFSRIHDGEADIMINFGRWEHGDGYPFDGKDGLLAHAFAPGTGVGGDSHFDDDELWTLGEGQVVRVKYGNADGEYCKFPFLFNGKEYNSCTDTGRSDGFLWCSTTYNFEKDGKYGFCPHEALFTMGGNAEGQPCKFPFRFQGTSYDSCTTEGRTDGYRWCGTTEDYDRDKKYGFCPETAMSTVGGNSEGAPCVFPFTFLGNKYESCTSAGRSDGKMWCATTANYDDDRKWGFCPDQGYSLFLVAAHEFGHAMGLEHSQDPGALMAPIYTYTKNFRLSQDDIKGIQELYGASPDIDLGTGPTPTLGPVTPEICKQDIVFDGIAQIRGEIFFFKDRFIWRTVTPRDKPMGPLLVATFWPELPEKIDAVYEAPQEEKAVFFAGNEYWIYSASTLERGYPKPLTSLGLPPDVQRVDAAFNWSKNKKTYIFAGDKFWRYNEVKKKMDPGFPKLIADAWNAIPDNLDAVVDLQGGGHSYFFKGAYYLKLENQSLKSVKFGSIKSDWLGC
Test: Matrix metalloproteinase-2 inhibitory assay
Assay type: biochemical
Conditions: MMP-2 inhibition, 30 min at 37°C, absorbance 450 nm
Procedure: The inhibitory effects of binding ligands were evaluated as below. […] Test components were dissolved in the buffer to yield a gradient of concentrations between 1 and 200 μM. A total of 50 μl of test components and 100 μl of the enzyme solution were added to a 96-well plate and incubated for 30 min at 37°C. Afterward, the solution in the 96-well plate was discarded. The plate was dried on water adsorbing paper. A total of 200 μl of wash solution was added to each well and incubated for 30 s. Again, the solution in the 96-well plate was abandoned. The plate was dried on water adsorbing paper. This step was carried out five times. A total of 50 μl aliquots of solution A and 50 μl aliquots of solution B were added to each well and kept in a dark place for 15 min. As a result, 50 μl aliquots of stopping solution were pipetted into each well. The plate was monitored at the absorbance of 450 nm by using an automatic microplate reader.

| Compound | IC50 [µM] |
| --- | --- |
| CC1(C)CC[C@]2(C(=O)O)CC[C@]3(C)C(=CC[C@@H]4[C@@]5(C)C[C@H](O)[C@H](O)[C@@](C)(C(=O)O)[C@@H]5CC[C@]43C)[C@@H]2C1 [Medicogenic acid, Medicagenic acid] | 64.1 ± 13.6 |
| C[C@@H]1CC[C@]2(C(=O)O[C@@H]3O[C@H](CO)[C@@H](O)[C@H](O)[C@H]3O)CC[C@]3(C)C(=CC[C@@H]4[C@@]5(C)C[C@@H](O)[C@H](O)[C@@](C)(CO)[C@@H]5CC[C@]43C)[C@@H]2[C@]1(C)O [Niga-ichigoside F1] | 20.1 ± 1.55 |
| O=C(O[C@@H]1O[C@@H]2COC(=O)c3cc(O)c(O)c(O)c3-c3c(cc(O)c(O)c3O)C(=O)O[C@H]([C@H]1O)[C@@H]2O)c1cc(O)c(O)c(O)c1 [Corilagin] | 28.6 ± 2.83 |
| O=c1oc2c(O)c(O)cc3c(=O)oc4c(O)c(O)cc1c4c23 [Ellagic acid, reference compound] | 37.8 ± 1.96 |
| Oreganol A | 30.8 ± 2.13 |
| C[C@@H]1CC[C@]2(C(=O)O[C@@H]3O[C@H](CO)[C@@H](O)[C@H](O)[C@H]3O)CC[C@]3(C)C(=CC[C@@H]4[C@@]5(C)C[C@@H](O)[C@@H](O)C(C)(C)[C@@H]5CC[C@]43C)[C@@H]2[C@]1(C)O [Kajiichigoside F1] | 22 ± 2.15 |

Other lines, results leading:

| IC50 [µM] | Compound |
| --- | --- |
| 23.2 ± 2.53 | Peduncloside |
| 20.7 ± 2.06 | C[C@@H]1CC[C@]2(C(=O)O[C@@H]3O[C@H](CO)[C@@H](O)[C@H](O)[C@H]3O)CC[C@]3(C)C(=CC[C@@H]4[C@@]5(C)C[C@@H](O)[C@H](O)C(C)(C)[C@@H]5CC[C@]43C)[C@@H]2[C@]1(C)O [Rosamultin] |
| 82.5 ± 8.87 | CC1=C2[C@H](/C=C(\C)C(=O)O)CC[C@@H](C)[C@H]2CC1 [Valerenic acid] |
| 25.9 ± 5.66 | C=C1[C@H]2C3=CC[C@@H]4[C@@]5(C)C[C@@H](O)[C@H](O)[C@@](C)(CO)[C@@H]5CC[C@@]4(C)[C@]3(C)CC[C@@]2(C(=O)O[C@@H]2O[C@H](CO)[C@@H](O)[C@H](O)[C@H]2O)CC[C@H]1C [Quadranoside VIII] |
| 23.2 ± 4.49 | COC(=O)[C@@]1(C)CC[C@]2(C(=O)O[C@@H]3O[C@H](CO)[C@@H](O)[C@H](O)[C@H]3O)CC[C@]3(C)C(=CC[C@@H]4[C@@]5(C)CC[C@H](O)[C@@](C)(CO)[C@@H]5CC[C@]43C)[C@@H]2C1 [Zebirioside O] |
| 25.5 ± 3.01 | C[C@@H]1CC[C@]2(C(=O)O[C@@H]3O[C@H](CO)[C@@H](O)[C@H](O)[C@H]3O)CC[C@]3(C)C(=CC[C@@H]4[C@@]5(C)C[C@@H](O)C(=O)C(C)(C)[C@@H]5CC[C@]43C)[C@@H]2[C@]1(C)O [Potentillanoside A] |

Target: T2, MS@PEI@QDs@PEI@MMP-2 (immobilized matrix metalloproteinase-2) (Homo sapiens, UniProt P08253)
T2 construct: purchased Sigma Co; host or cells: HEK 293 cells
T2 sequence (P08253 110-660): T1 sequence (P08253 110-660)
Test: Microfluidic chip-based ligand fishing
Assay type: binding
Conditions: dissociated solution after microfluidic chip-based ligand fishing
Procedure: All ligand fishing experiments were performed on the microfluidic chip system. The microfluidic chip system consisted of six modules, namely, a microscope stand, a light-emitting diode surface light source, a charge-coupled device (CCD) camera, a temperature controller, an automated x-y-z translation stage (Wuhan Mesovision Biotechnology Co.) for controlling the movement of the microfluidic chip, and four syringe pumps (Baoding Lange Constant Current Pump Co.). Before use, the microfluidic chip was first treated with 1% tween 80 in n-hexadecane (v/v) through port a to make the whole chip surface hydrophobic. […] Under the monitoring of the top-view CCD camera, MS@PEI@QDs@PEI@MMP-2 were infused into the upper left port b, whereas extract of R. roxburghii was infused into upper right port c at an appropriate flow rate to allow the solution to meet the MS@PEI@QDs@PEI @MMP-2 at the junction. The mixture was incubated in the channel for a period. Then, 500 μl aliquots of wash solvent (PBS buffer) were infused into the port d. At the turning point, a small ring magnet trapped the MS@PEI@QDs@PEI@MMP-2. […] The linearity was analyzed by plotting the peak area of the ellagic acid against a series of concentrations (0.009–1.00 mg·ml^−1). The lower limit of quantification was determined as the analytical concentration at an S/N ratio of 10. […] The UV spectra were monitored at 254 nm. […]

| extraction yield [%] | Compound |
| --- | --- |
| 76.6 | CNC(=O)[C@H](Cc1ccccc1)NC(=O)[C@H](CC(C)C)[C@H](CSc1cccs1)C(=O)NO [Batimastat] |
